Measured values reported in ChEMBL document CHEMBL4680271, “COVID-19: Drug Targets and Potential Treatments” (J Med Chem, 2020).

Experiments:
[1] = target: Procathepsin L (Homo sapiens) (UniProt P07711); assay: Inhibition of Cathepsin L in HEK293 cells harboring human ACE2 assessed as reduction in SARS-CoV-2 S pseudovirions entry into host cell pretreated for 1 hr followed by viral infection and measured after overnight incubation by luciferase method; type: cell-based; conditions: concentration not given here
SARS-CoV-2 = assay: Antiviral activity against nCoV-2019 BetaCoV/Wuhan/WIV04/2019 infected in African green monkey VeroE6 cells assessed as reduction in viral yield preincubated for 1 hr followed by viral infection and further replacement of fresh medium containing compound and measured at 48 hrs post infection by qRT-PCR method; type: functional, organism-based; conditions: Severe acute respiratory syndrome coronavirus 2, BetaCoV/Wuhan/WIV04/2019, Vero C1008

Sequence of Procathepsin L (Homo sapiens) (P07711 114-333 limits assumed): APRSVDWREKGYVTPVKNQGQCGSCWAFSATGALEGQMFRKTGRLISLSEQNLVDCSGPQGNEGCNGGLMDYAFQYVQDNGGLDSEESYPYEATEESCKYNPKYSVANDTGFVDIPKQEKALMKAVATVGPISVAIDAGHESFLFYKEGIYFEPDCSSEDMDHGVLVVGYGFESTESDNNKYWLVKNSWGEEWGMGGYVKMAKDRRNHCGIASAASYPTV

SMILES	inhibition [1] [%]	EC50 (SARS-CoV-2) [µM]
CCc1ccccc1NC(=O)CSC(=O)NNC(=O)[C@H](Cc1c[nH]c2ccccc12)NC(=O)OC(C)(C)C	> 76	–
Nc1nc2c(ncn2CCC(CO)CO)c(=O)[nH]1 [PENCICLOVIR]	–	96
